From paper PMC9508125, “The evolutionary advantage of an aromatic clamp in plant family 3 glycoside exo-hydrolases” (Nature Communications, 2022)
Residue numbers refer to the chain shown, from its start.

Columns and labels:
Test in all cases: Relative rates of hydrolysis of poly-, oligosaccharides and aryl-glycosides
Type in all cases: biochemical
HvExoI W286F mutant = molecular target: T1, HvExoI W286F mutant (Hordeum vulgare, UniProt Q9XEI3, W311F); conditions: substance is the substrate, nd = activity not detected
T1 sequence (Q9XEI3 26-630 W311F): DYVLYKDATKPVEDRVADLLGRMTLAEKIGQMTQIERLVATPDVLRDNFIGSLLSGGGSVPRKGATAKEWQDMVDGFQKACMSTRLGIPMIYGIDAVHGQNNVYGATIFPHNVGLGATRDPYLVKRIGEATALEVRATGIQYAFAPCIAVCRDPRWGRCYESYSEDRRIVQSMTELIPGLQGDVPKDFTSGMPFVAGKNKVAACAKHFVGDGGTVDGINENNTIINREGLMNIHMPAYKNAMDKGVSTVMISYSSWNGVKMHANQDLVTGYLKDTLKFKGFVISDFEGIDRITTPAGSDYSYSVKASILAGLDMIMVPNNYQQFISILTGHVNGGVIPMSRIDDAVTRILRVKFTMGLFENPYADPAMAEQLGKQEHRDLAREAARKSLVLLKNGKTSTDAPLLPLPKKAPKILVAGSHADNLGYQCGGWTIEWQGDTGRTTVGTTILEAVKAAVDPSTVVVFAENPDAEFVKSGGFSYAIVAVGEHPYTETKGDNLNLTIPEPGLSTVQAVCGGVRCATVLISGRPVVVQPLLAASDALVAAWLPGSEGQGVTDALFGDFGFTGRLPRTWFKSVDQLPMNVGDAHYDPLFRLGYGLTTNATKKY
Description: (§1) Dependency of activities of WT and mutant HvExoI on pH (McIlvaine buffers in the pH range of 3.5–8.5 at 30 °C) and temperature (100 mM sodium acetate buffer, pH 5.25, temperature range 0–80 °C, 15 min incubations) were determined using 0.2% (w/v) 4NP-Glc[21],[59]. Relative rates of hydrolysis of β-linked poly-, oligosaccharides, and aryl-glucosides were determined using near-homogenous HvExoI at 50 pmoles. […] Kinetic parameters were calculated from the analyses of Michaelis-Menten plots with Grafit 7.0.3[62] and processed by a proportional weighted fit, using nonlinear regression. The relative rates of hydrolysis, kinetic, and inhibition data were rounded to one or two decimal points (Supplementary Tables 2–4).

[1] = molecular target: T2, HvExoI W286F/W434F mutant (Hordeum vulgare, UniProt Q9XEI3, W311F/W459F); conditions: substance is the substrate, nd = activity not detected
T2 sequence (Q9XEI3 26-630 W311F/W459F): T1 sequence (Q9XEI3 26-630 W311F) with W434F
Description: as §1

HvExoI W286Y mutant = molecular target: T3, HvExoI W286Y mutant (Hordeum vulgare, UniProt Q9XEI3, W311Y); conditions: substance is the substrate, nd = activity not detected
T3 sequence (Q9XEI3 26-630 W311Y): T1 sequence (Q9XEI3 26-630 W311F) with F286Y
Description: as §1

HvExoI W434H mutant = molecular target: T4, HvExoI W434H mutant (Hordeum vulgare, UniProt Q9XEI3, W459H); conditions: substance is the substrate
T4 sequence (Q9XEI3 26-630 W459H): T1 sequence (Q9XEI3 26-630 W311F) with F286W, W434H
Description: as §1

WT HvExoI = WT HvExoI (Hordeum vulgare, UniProt Q9XEI3); conditions: substance is the substrate, HvExoI at 50 pmoles, nd = activity not detected
Description: as §1

Chain of WT HvExoI (Q9XEI3 entry or part of it): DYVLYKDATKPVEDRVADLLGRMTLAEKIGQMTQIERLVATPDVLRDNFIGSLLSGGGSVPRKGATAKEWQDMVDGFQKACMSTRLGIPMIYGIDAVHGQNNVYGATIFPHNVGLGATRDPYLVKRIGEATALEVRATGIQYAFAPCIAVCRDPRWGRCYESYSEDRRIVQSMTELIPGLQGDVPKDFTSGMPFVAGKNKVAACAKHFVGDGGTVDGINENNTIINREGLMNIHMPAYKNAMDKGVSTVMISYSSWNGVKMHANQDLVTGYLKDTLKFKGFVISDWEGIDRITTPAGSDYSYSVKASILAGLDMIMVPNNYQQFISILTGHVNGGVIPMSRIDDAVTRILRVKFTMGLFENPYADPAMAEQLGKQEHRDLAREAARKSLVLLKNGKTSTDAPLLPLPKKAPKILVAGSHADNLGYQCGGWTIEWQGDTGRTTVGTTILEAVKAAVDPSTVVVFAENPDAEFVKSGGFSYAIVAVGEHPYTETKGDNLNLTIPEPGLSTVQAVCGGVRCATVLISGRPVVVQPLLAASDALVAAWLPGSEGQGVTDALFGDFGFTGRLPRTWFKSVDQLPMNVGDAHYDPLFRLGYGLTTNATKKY

| Compound | Activity (relative rate of hydrolysis) (HvExoI W286F mutant) | Activity (relative rate of hydrolysis) [1] | Activity (relative rate of hydrolysis) (HvExoI W286Y mutant) | Activity (relative rate of hydrolysis) (HvExoI W434H mutant) | Activity (relative rate of hydrolysis) (WT HvExoI) |
| --- | --- | --- | --- | --- | --- |
| OC[C@H]1O[C@@H](O[C@@H]2[C@@H](O)[C@H](O[C@@H]3[C@@H](O)[C@H](O[C@@H]4[C@@H](O)[C@H](O[C@@H]5[C@@H](O)[C@H](O)O[C@H](CO)[C@H]5O)O[C@H](CO)[C@H]4O)O[C@H](CO)[C@H]3O)O[C@H](CO)[C@H]2O)[C@H](O)[C@@H](O)[C@@H]1O [Laminaripentaose] | 1.0 ± 0.01 μmole/min per mg protein | 0.4 ± 0.04 μmole/min per mg protein | 14.8 ± 0.4 μmole/min per mg protein | 1.5 ± 0.1 μmole/min per mg protein | 11.7 ± 0.5 μmole/min per mg protein |
| OC[C@H]1O[C@@H](O[C@@H]2[C@@H](O)[C@H](O[C@@H]3[C@@H](O)[C@H](O[C@@H]4[C@@H](O)[C@H](O[C@@H]5[C@@H](O)[C@H](O[C@H]6[C@H](O)[C@@H](CO)OC(O)[C@@H]6O)O[C@H](CO)[C@H]5O)O[C@H](CO)[C@H]4O)O[C@H](CO)[C@H]3O)O[C@H](CO)[C@H]2O)[C@H](O)[C@@H](O)[C@@H]1O (some centres unmarked) [Laminarihexaose] | 1.1 ± 0.03 μmole/min per mg protein | 0.5 ± 0.1 μmole/min per mg protein | 15.8 ± 0.1 μmole/min per mg protein | 1.5 ± 0.1 μmole/min per mg protein | 12.2 ± 0.1 μmole/min per mg protein |
| OC[C@H]1O[C@@H](O[C@H]2[C@H](O)[C@@H](O)[C@H](O[C@H]3[C@H](O)[C@@H](O)[C@H](O[C@H]4[C@H](O)[C@@H](O)[C@H](O[C@H]5[C@H](O)[C@@H](O)[C@H](O[C@H]6[C@H](O)[C@@H](O)C(O)O[C@@H]6CO)O[C@@H]5CO)O[C@@H]4CO)O[C@@H]3CO)O[C@@H]2CO)[C@H](O)[C@@H](O)[C@@H]1O (some centres unmarked) [Cellohexaose] | 0.1 ± 0.01 μmole/min per mg protein | 0.01 ± 0.001 μmole/min per mg protein | 7.0 ± 0.1 μmole/min per mg protein | 0.3 ± 0.02 μmole/min per mg protein | 9.1 ± 0.2 μmole/min per mg protein |
| OC[C@H]1O[C@@H](O[C@@H]2[C@@H](O)[C@H](O[C@@H]3[C@@H](O)[C@H](O[C@@H]4[C@@H](O)[C@H](O[C@@H]5[C@@H](O)[C@H](O[C@@H]6[C@@H](O)[C@H](O[C@@H]7[C@@H](O)[C@H](O)O[C@H](CO)[C@H]7O)O[C@H](CO)[C@H]6O)O[C@H](CO)[C@H]5O)O[C@H](CO)[C@H]4O)O[C@H](CO)[C@H]3O)O[C@H](CO)[C@H]2O)[C@H](O)[C@@H](O)[C@@H]1O [Laminariheptaose] | 1.2 ± 0.1 μmole/min per mg protein | 0.5 ± 0.04 μmole/min per mg protein | 14.5 ± 2.0 μmole/min per mg protein | 1.6 ± 0.1 μmole/min per mg protein | 11.0 ± 0.8 μmole/min per mg protein |
| laminarin | 1.1 ± 0.1 μmole/min per mg protein | 0.2 ± 0.01 μmole/min per mg protein | 14.2 ± 1.3 μmole/min per mg protein | 0.7 ± 0.02 μmole/min per mg protein | 54.4 ± 0.5 μmole/min per mg protein |
| OC[C@H]1O[C@@H](O[C@H]2[C@H](O)[C@@H](O)[C@H](O[C@H]3[C@H](O)[C@@H](O)[C@H](O[C@H]4[C@H](O)[C@@H](O)C(O)O[C@@H]4CO)O[C@@H]3CO)O[C@@H]2CO)[C@H](O)[C@@H](O)[C@@H]1O (some centres unmarked) [Cellotetraose] | 0.1 ± 0.01 μmole/min per mg protein | 0.02 ± 0.001 μmole/min per mg protein | 6.3 ± 1.1 μmole/min per mg protein | 0.2 ± 0.01 μmole/min per mg protein | 8.5 ± 0.7 μmole/min per mg protein |
| Cellobiose | 0.1 ± 0.01 μmole/min per mg protein | 0.01 ± 0.001 μmole/min per mg protein | 3.2 ± 0.1 μmole/min per mg protein | 0.1 ± 0.01 μmole/min per mg protein | 4.6 ± 0.2 μmole/min per mg protein |
| OC[C@H]1O[C@@H](O[C@H]2[C@H](O)[C@@H](O)[C@H](O[C@H]3[C@H](O)[C@@H](O)[C@H](O[C@H]4[C@H](O)[C@@H](O)[C@H](O[C@H]5[C@H](O)[C@@H](O)C(O)O[C@@H]5CO)O[C@@H]4CO)O[C@@H]3CO)O[C@@H]2CO)[C@H](O)[C@@H](O)[C@@H]1O (some centres unmarked) [Cellopentaose] | 0.1 ± 0.01 μmole/min per mg protein | 0.02 ± 0.001 μmole/min per mg protein | 5.8 ± 0.2 μmole/min per mg protein | 0.2 ± 0.01 μmole/min per mg protein | 8.4 ± 0.4 μmole/min per mg protein |
| OC[C@H]1O[C@@H](O[C@H]2[C@H](O)[C@@H](CO)OC(O)[C@@H]2O)[C@H](O)[C@@H](O)[C@@H]1O (some centres unmarked) [Laminaribiose] | 0.6 ± 0.04 μmole/min per mg protein | 0.5 ± 0.1 μmole/min per mg protein | 13.9 ± 0.1 μmole/min per mg protein | 0.8 ± 0.04 μmole/min per mg protein |  |
